From US20220241409A1, “WATER SOLUBLE ADJUVANT AND COMPOSITION CONTAINING SAME” (Sumitomo Dainippon Pharma Co., Ltd., priority 2019, published 2022)

Assays:
[1] = test system: human peripheral blood mononuclear cell; assay: Activation of immune cells, human PBMC cytokine/chemokine production (Test 3); format: cell-based; conditions: 200 nmol/L, one day, PBMCs from two donors, compared with only DMSO
Protocol: Cryopreserved peripheral blood mononuclear cells (PBMCs) of adult (C.T.L) were reconstituted, suspended in a culture medium which comprises AIM V medium (Life Technologies) supplemented with 10% human serum (biowest) and 1% MEM Non-Essential Amino Acids Solution (100×) (Life Technologies), and seeded on a U-bottom 96 well plate at 4×10^5 cells/well. The compound of the present invention was added in the presence of 0.1% (v/v) DMSO to the wells at a final concentration of 200 nmol/L. The plate was incubated at 37° C. under an atmosphere of 5% CO2. One day after the incubation, the culture supernatant was collected. The concentration of cytokine and chemokine (GM-CSF, IFNα2, IFNγ, IL-12p40, IL-1p, IL-6, IP-10, and TNFα) which were included in each culture supernatant was measured with Milliplex Human Cytokine/Chemokine Magnetic Bead Panel kit (Millipore) and Luminex system (Luminex) in accordance with the manufacturer's protocol.
The results of the test wherein PBMCs derived from two different donors were used were shown in FIG. 1-A to FIG. 1-I. The white bar indicates the mean number of the concentration of cytokine and chemokine in the culture supernatant from three wells to which only DMSO was added, and the black bar indicates the mean number of the concentration of cytokine and chemokine in the culture supernatant from three wells to which the present compound was added. […]

[2] = test system: HLA-A*02:01 transgenic mouse; assay: In vivo adjuvant activity, CTL induction with vaccine b (Montanide ISA 51 VG), IFNγ ELISPOT (Test 8); conditions: compound (32.5 ng or 325 ng per body) added to vaccine b versus no compound; twice, one week interval
Protocol: The in vivo adjuvant activity of the compounds prepared in Examples 2 and 3 was evaluated in the following procedure. To a cocktail vaccine comprising Compound of formula 4 prepared in Reference example 9 and Peptide SEQ ID No. 3 prepared in Reference example 3 with Montanide ISA51 VG (hereinafter, referred to as “vaccine b”) was added the compound prepared in Example 2 or 3 to prepare each vaccine. The vaccine was administered to a HLA-A*02:01 transgenic mouse, and the adjuvant activity of each vaccine was evaluated by the method of testing antigen-specific CTL induction.
Specifically, Compound of formula 4 and Peptide SEQ ID No. 3 were dissolved in DMSO, and then diluted with water for injection to concentrations of Compound of formula 4 of 3 mg/mL and Peptide SEQ ID No. 3 of 2.25 mg/mL. The diluted peptide solution was mixed and emulsified with an equal volume of Montanide ISA 51 VG (Seppic) to prepare vaccine b. Cocktail vaccine b was injected to mice intradermally at the tail base area in an amount for administering 300 μg of Compound of formula 4 per body and 225 μg of Peptide SEQ ID No. 3 per body. Or, in the step of preparing vaccine b, the compound prepared in Example 3 was added to the diluted peptide solution to prepare a vaccine, and the prepared vaccine was injected to mice intradermally at the tail base area in an amount for administering 300 μg of Compound of formula 4 per body, 225 μg of Peptide SEQ ID No. 3 per body, and 32.5 ng or 325 ng of the compound prepared in Example 3 per body. Or, in the step of preparing vaccine b, the compound prepared in Example 2 was added to the diluted peptide solution to prepare a vaccine, and the prepared vaccine was injected to mice intradermally at the tail base area in an amount for administering 300 μg of Compound of formula 4 per body, 225 μg of Peptide SEQ ID No. 3 per body, and 32.5 ng or 325 ng of the compound prepared in Example 2 per body. The administrations were done twice, which had one week interval. One week after the final administration, the mice were sacrificed with CO2 gas. Splenocytes were harvested from spleens removed from the mice. Like Test 6, Peptide (SEQ ID No. 1 or SEQ ID No. 5) was added to the splenocyte-containing ELISPOT plate, and the plate was incubated overnight at 37° C. under an atmosphere of 5% CO2 to re-stimulate the peptide in vitro. Then, after removal of the supernatant from the wells, stained spots on the ELISPOT plate were counted.

[3] = test system: HLA-A*02:01 transgenic mouse; assay: Induction of antigen-specific effector memory CTL, flow cytometry (Test 14); format: in vivo; conditions: twice; for induction of antigen peptide-specific effector memory CTL (CD8+ tetramer+ CD127+ CD62L-): 325 ng per body in vaccine b compared with the vaccine without compound
Protocol: The activity of a vaccine comprising the compounds prepared in Examples 2 and 3 for inducing effector memory CTL was evaluated through the cell surface antigen expression analysis of CTL by flow cytometry.
Specifically, vaccine a prepared like Test 6 was injected to a HLA-A*02:01 transgenic mouse intradermally at the tail base area in an amount for administering 300 μg of Compound of formula 4 per body and 225 μg of Peptide SEQ ID No. 3 per body. The administrations were done twice, which had one week interval. Or, a vaccine prepared by adding the compound prepared in Example 3 to vaccine a was injected to the mouse intradermally at the tail base area in an amount for administering 300 μg of Compound of formula 4 per body, 225 μg of Peptide SEQ ID No. 3 per body, and 32.5 ng of the compound prepared in Example 3 per body. The administrations were done twice, which had one week interval. Or, vaccine b prepared like Test 8 was injected to the mouse intradermally at the tail base area in an amount for administering 300 μg of Compound of formula 4 per body and 225 μg of Peptide SEQ ID No. 3 per body. Or a vaccine prepared by adding the compound prepared in Example 3 to vaccine b was injected to the mouse intradermally at the tail base area in an amount for administering 300 μg of Compound of formula 4 per body, 225 μg of Peptide SEQ ID No. 3 per body, and 325 ng of the compound prepared in Example 3 per body. Or a vaccine prepared by adding the compound prepared in Example 2 to vaccine b was injected to the mouse intradermally at the tail base area in an amount for administering 300 μg of Compound of formula 4 per body, 225 μg of Peptide SEQ ID No. 3 per body, and 325 ng of the compound prepared in Example 2 per body. […] 1, a PE-Cy7-labeled anti-CD127 antibody, and a PerCP-Cy5.5-labeled anti-CD62L antibody, and analyzed for peptide-specific effector memory CTLs with a flow cytometer. The ratio of CD8-positive tetramer-positive CD127-positive CD62L-negative fraction in the lymphocyte fraction was calculated as peptide-specific effector memory CTL.

Structure (SMILES)	concentration of cytokine and chemokine (GM-CSF, IFNα2, IFNγ, IL-12p40, IL-1β, IL-6, IP-10, TNFα) in culture supernatant [1]	CTL counts responsive to Peptide of SEQ ID No. 1 [2]	CTL counts responsive to Peptide of SEQ ID No. 5 [2]	induction of peptide-specific effector memory CTL (CD8+ tetramer+ CD127+ CD62L-) ([3]; 32.5 ng per body in vaccine a compared with vaccine a)	induction of antigen peptide-specific effector memory CTL (CD8+ tetramer+ CD127+ CD62L-) [3]
CCCCOc1nc(N)c2[nH]c(=O)n(Cc3ccc(CN(C)CCOCCOCCOCCOCCO)cc3)c2n1 [Example 3, 6-amino-2-butoxy-9-{[4-(16-hydroxy-2-methyl-5,8,11,14-tetraoxa-2-azahexadecan-1-yl)phenyl]methyl}-7,9-dihydro-8H-purin-8-one]	higher	more	more	high frequency	high frequency
CCCCOc1nc(N)c2[nH]c(=O)n(Cc3ccc(CN(C)CCOCCOCCOCCOCCO)nc3)c2n1 [Example 2, 6-amino-2-butoxy-9-{[6-(16-hydroxy-2-methyl-5,8,11,14-tetraoxa-2-azahexadecan-1-yl)pyridin-3-yl]methyl}-7,9-dihydro-8H-purin-8-one-trifluoroacetate]	higher	more	more	–	high frequency
